Results taken from paper PMC11305387, “AlphaFold accelerated discovery of psychotropic agonists targeting the trace amine–associated receptor 1” (Science Advances, 2024).
“And” between values parts separate entries of the source, which are not always exact repeats. Identical values can stand only once. Like-named read-outs stand apart in the source and are kept apart here.

Columns and labels:
[1] = target: T1, hTAAR1 (Homo sapiens, UniProt Q96RJ0); assay: G protein (mini-Gs) recruitment luminescence complementation assay, agonist mode; type: cell-based
T1 construct: expressed in transfected cells; host or cells: Expi293F
T1 sequence (Q96RJ0 1-339): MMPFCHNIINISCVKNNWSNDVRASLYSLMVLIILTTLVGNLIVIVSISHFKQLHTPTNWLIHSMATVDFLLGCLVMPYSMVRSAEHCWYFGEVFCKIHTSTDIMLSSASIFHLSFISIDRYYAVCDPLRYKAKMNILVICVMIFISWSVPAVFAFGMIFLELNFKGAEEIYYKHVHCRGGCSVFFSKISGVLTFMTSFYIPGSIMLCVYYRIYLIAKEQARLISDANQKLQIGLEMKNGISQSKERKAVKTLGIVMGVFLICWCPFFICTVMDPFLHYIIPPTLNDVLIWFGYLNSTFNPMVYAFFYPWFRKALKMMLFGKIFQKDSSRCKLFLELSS
Description: The 62 predicted ligands were purchased from commercial vendors and tested for activity at a concentration of 20 μM in a luminescence complementation–based assay measuring recruitment of mini-Gs to the human TAAR1 ([38]).
To monitor TAAR1 activation by compounds, we used our previously described system. […] Cells were then reseeded in solid white, 96-well plates (Corning) with 90 μl of cell suspension per well. Luminescence was read using a plate reader for 5 min (SPARK 10 M, Tecan) before the addition of compounds to ensure signal stability. Ten microliters of each compound diluted in DPBS was added, and luminescence from each well was read for 10 min, with 100-ms read time per well. The A2AR counter-screen was performed using the same protocol. In these experiments, the hTAAR1 was replaced by a C-terminally SmBiT-tagged hA2AR construct.

[2] = system: TAAR1-WT and TAAR1-KO mice; assay: Core-body temperature (CBT) measurement; type: in vivo; details: TAAR1-KO mice, 1 mg/kg (fig. S13A)
Description: Core temperature was determined by a rectal thermoprobe. Compounds or vehicle was administered intraperitoneally. A basal measurement was performed immediately before injection. Measurements were repeated every 30 min for 2 hours. Mean changes in CBT were calculated by subtracting the value from vehicle treated group at the corresponding time point. A washout of 1 week between different doses of compound 65 was applied, and mice were injected starting with the lowest dose first.

[3] = system: WT and TAAR1-KO mice; assay: Open-field test: baseline locomotion and MK-801-induced hyperlocomotion; type: in vivo; details: compound 65 1 mg/kg, risperidone 0.03 mg/kg
Description: To assess the influence of the compound on baseline locomotion and MK-801–induced hyperlocomotion, mice were subjected to open-field testing on four occasions separated by 96 hours. The first occasion was a mock test session where all mice were injected with vehicle only, serving to reduce the effect of novelty on subsequent sessions. The next three sessions were true test sessions with pretreatment of either compound 65, risperidone, or vehicle, followed by MK-801. The R package agricolae was used to generate a randomized block design, randomizing treatment order across sex, genotype, and test session. After injection with either compound 65 (1 mg/kg), risperidone (0.03 mg/kg), or vehicle intraperitoneally, mice were immediately placed in the open field and recorded for 15 min. They were then injected with MK-801 (0.35 mg/kg intraperitoneal) and recorded again for 60 min. The OFT arena measured 46 cm by 46 cm with gray floor and walls. The brightness at the center of each arena was 30 to 50 lux. The arenas were cleaned with 70% ethanol between each animal. Video from a camera mounted in the ceiling was analyzed using EthoVision XT11.5 (Noldus) software.

[4] = system: WT and TAAR1-KO mice; assay: Pre-pulse inhibition (PPI) behavioral assay; type: in vivo; details: compound 65 1 mg/kg, risperidone 0.2 mg/kg i.p.
Description: Measurements were performed using startle response chambers (San Diego Instruments, San Diego, CA, USA). Each chamber is sound-isolated and contains a Plexiglass animal enclosure attached to a platform and a loudspeaker that can produce both continuous white noise and acoustic pulses of varying intensities. The animal enclosure is large enough for the animal to turn around and make other movements to reduce restraint stress. Mouse startle responses to acoustic stimuli are transformed by a piezoelectric transducer under the platform into an analog signal. The transducers were calibrated before each experiment using a standardization unit (San Diego Instruments, San Diego, CA, USA), and the speakers were calibrated using a Type 2670 Microphone Preamplifier, a Type 4230 Sound Level Calibrator, and a Type 2610 Measuring Amplifier (Brüel & Kjær, Nærum, Denmark). To habituate the mice to the chambers, they were placed in the enclosure for 5 min, with 65-dB background white noise, on three different days before the start of experiments. PPI measurements were then conducted on each mouse on four occasions separated by 96 hours. The first occasion was a mock test session where all mice were injected with vehicle, serving to reduce the effect of novelty on subsequent sessions. The next three sessions were true test sessions with injection of either compound 65, risperidone, or vehicle. The R package agricolae was used to generate a randomized block design, randomizing treatment order across sex, genotype, and test session.
Animals were brought to the testing room for habituation 60 min before the starting of tests. Thirty minutes before PPI measurements, mice were injected with either compound 65 (1 mg/kg), risperidone (0.2 mg/kg), or vehicle intraperitoneally. Each test session started with a 5-min background noise (65-dB white noise) habituation period. The background noise continued throughout the test session. The habituation period was followed by four blocks of trials, with the first and last blocks consisting of five pulse-only trials (40-ms, 120-dB pulse). During block 2, five trial types were presented five times each in a pseudo-randomized order. The trial types included pulse only, no stimulus (NOSTIM), and three different pre-pulse trials in which 20 ms pre-pulses of different intensities (68, 71, or 77 dB) preceded the startle pulse (120 dB) by a 100-ms interval. Block 3 contained the same numbers and types of trials as block 2, but in a different pseudorandom order. […] PPI data are shown as PPI%, which was calculated as [1 − (pre-pulse trials/startle-only trials)] × 100. Mean PPI was calculated by adding the average PPI% for all pre-pulse intensities (3, 6, and 12 dB) and dividing it by the number (i.e., 3) of pre-pulse intensities.

[5] = Tables S3A/S3B, compounds tested at 20 μM, relative to the maximal effect of β-PEA (20 µM)
[6] = TAAR1, G protein recruitment assay, read-out: pEC50 (converted)
[7] = relative to the effect of the reference agonist β-PEA, read-out: Emax

Structure (SMILES) | Emax [1, 5] [%] | EC50 [1, 6] | Emax [1, 7] [%] | other results
Cc1cccc(C2CCCN2)c1 (centres unmarked) [Compound 2] | 1.3 |  |  | 
Cc1nc(C(N)C(C)O)cs1.Cl.Cl (centres unmarked) [Compound 3] | 2.3 |  |  | 
Cl.Cl.c1cnc2c(c1)CNC2 [Compound 4] | 4.4 |  |  | 
Cc1c(C(C)N)sc2ccccc12.Cl (centres unmarked) [Compound 5] | 8.5 |  |  | 
CNC(C)c1nc2ccccc2s1 (centres unmarked) [Compound 6] | 8.8 |  |  | 
CC(N)c1cc2ccccc2s1 (centres unmarked) [Compound 7] | 14.7 |  |  | 
CCCN(CCC)C1CCc2cccc(O)c2C1 (centres unmarked) [Compound 8-OH-DPAT, 8-hydroxy-2-(di-n-propylamino)tetralin, reference compound] |  |  |  | CBT responsiveness [2]: validated the responsiveness of TAAR1-KO mice
Br.NCc1cccc2c(O)cccc12 [Compound 8] | 14.9 |  |  | 
NC1CSc2ccc(Br)cc21 (centres unmarked) [Compound 9] | 19.1 |  |  | 
CNCc1cc2sccc2n1C [Compound 11] | 40.4 |  |  | 
NCc1noc2ccc(F)cc12 [Compound 13] |  | 3.16 µM | 51.8 | 
C[C@H](N)c1coc2ccccc12 [Compound 14] |  | 7.94 µM | 54.3 | 
C[C@H](N)c1csc2ccccc12 [Compound 15] |  | 6.31 µM | 57.5 | 
C[C@@H](N)c1cc2ccccc2o1 [Compound 16] |  | 1.58 µM | 61.9 | 
NC[C@H]1Cc2cc(Br)ccc2O1 [Compound 17] |  | 6.31 µM | 67.8 | 
Cc1ccc(-c2cccc3c2CNCC3)o1 [Compound 18] |  | 0.631 µM | 68.7 | 
CN[C@H]1CCc2ccccc2C1 [Compound 19] |  | 3.98 µM | 74.5 | Emax at 20 µM [1, 5]: 72.8%
N[C@H]1COc2cccc(Br)c2C1 [Compound 20] |  | 3.98 µM | 74.5 | 
Cc1cc2c(CCN)csc2s1 [Compound 21] |  | 3.16 µM | 75.2 | Emax at 20 µM [1, 5]: 75.3%

Structure (SMILES) | Emax [1, 5] [%] | EC50 [1, 6] | Emax [1, 7] [%] | other results
CNCc1cccc2cccnc12 [Compound 22] |  | 3.16 µM | 78.5 | 
NCc1nsc2ccccc12 [Compound 23] |  | 3.98 µM | 79.2 | 
COc1cccc(C2=CCNC2)c1 [Compound 24] |  | 1.58 µM | 81.4 | Emax at 20 µM [1, 5]: 81.8%
c1csc([C@H]2CCCNC2)n1 [Compound 25] |  | 1 µM | 95.3 | 
NC[C@H]1OCCc2sc(F)cc21 [Compound 26] |  | 1 µM | 95.5 | 
Cc1ccc([C@@H]2CNCCO2)o1 [Compound 27] |  | 0.251 µM | 98.7 | 
Cc1ccc2c(c1Br)CNC2 [Compound 28] |  | 0.398 µM | 103 | 
Brc1csc2c1CNCC2 [Compound 29] |  | 0.158 µM | 106 | 
CN1CCC(c2ccc(Br)cc2)C1 (centres unmarked) [Compound 33] | 0.6 |  |  | 
C[C@@H](NCC1CC1)c1coc2ccccc12 [Compound 35] | 0.9 |  |  | 
CC(CNCc1ncc[nH]1)c1ccncc1 (centres unmarked) [Compound 36] | 1.3 |  |  | 
CC(NCCO)c1cccc2c1OCO2 (centres unmarked) [Compound 38] | 3.5 |  |  | 
CCNCc1nc(-c2cccs2)cs1 [Compound 39] | 3.9 |  |  | 
CCN1CCc2ccccc2C(C)C1 (centres unmarked) [Compound 43] | 7.6 |  |  | 
OC(CNC[C@@H]1Cc2ccccc2CO1)C1CC1 (some centres unmarked) [Compound 44] | 10.0 |  |  | 
CN[C@@H](C)CNc1ncnc2sc(C)cc12 [Compound 46] | 18.8 |  |  | 
c1ccc2c(c1)COC2CNCc1ccn[nH]1 (centres unmarked) [Compound 47] | 21.0 |  |  | 
CN1CCC(c2c[nH]c3ccccc23)C1 (centres unmarked) [Compound 49] | 27.1 |  |  | 
CCN1CCCC(c2ccccc2)C1 (centres unmarked) [Compound 52] | 44.5 |  |  | 

Structure (SMILES) | Emax [1, 5] [%] | EC50 [1, 6] | Emax [1, 7] [%] | other results
c1ccc2cc(CNC3CC3)ccc2c1 [Compound 56] |  | 12.6 µM | 63 | 
CCNCc1cccc2c1OCO2 [Compound 57] |  | 5.01 µM | 73.2 | 
CC[C@@H](CNCC1=CCCOC1)c1ccccc1 [Compound 58] |  | 7.94 µM |  | Emax ([1]; relative to the effect of the reference agonist β-PEA): 78.4%
CCNCc1cncc2ccccc12 [Compound 59] |  | 6.31 µM | 78.8 | 
CCNCc1cccc2ccoc12 [Compound 60] |  | 3.16 µM | 79.9 | 
c1ccc2c(c1)C[C@H]2CNCc1c[nH]cn1 [Compound 61] |  | 5.01 µM | 80.3 | 
Brc1cccc2c1CNCC2 [Compound 62] |  | 0.316 µM | 107 | 
c1coc(C2CNCCO2)c1 (centres unmarked) [Compound 64] |  | 0.398 µM |  | fold reduction of agonist potency versus compound 30 ([1]; TAAR1 G protein recruitment): > 10 fold
Cn1cc(C2=CCCNC2)cn1 [Compound 66] |  | 2 µM |  | 
C1=C(c2ccccc2)CNCC1 [Compound 67] |  |  |  | EC50 ([1]; pEC50, TAAR1, G protein recruitment assay): 0.0251 µM
COc1cccnc1C1=C(C)CCNC1 [Compound 69] |  | 3.16 µM |  | 
CC1=C(c2cc[nH]n2)CNCC1 [Compound 71] |  | 1.58 µM and 0.631 µM |  | 
CC1=C(c2ncco2)CNCC1 [Compound 74] |  | 0.631 µM |  | 
CC1=C(c2ccccn2)CNCC1 [Compound 75] |  | 0.501 µM |  | 
CC1=C(c2cccnn2)CNCC1 [Compound 76] |  | 50.1 µM and ~50.1 µM |  | 
CC1=C(c2ccncc2)CNCC1 [Compound 77] |  | 7.94 µM |  | 
Cc1nc2n(c(=O)c1CCN1CCC(c3noc4cc(F)ccc34)CC1)CCCC2 [risperidone, reference compound] |  |  |  | effect on locomotion ([3]; TAAR1-KO mice): significant reduction in locomotion; effect on MK-801–induced hyperlocomotion ([3]; WT mice, MK-801 0.35 mg/kg): significant decrease; effect on baseline locomotion ([3]; WT mice, versus vehicle): notable reduction; effect on PPI ([4]; TAAR1-KO mice): increased PPI; effect on PPI ([4]; WT mice): general augmentation in PPI compared to the vehicle control
NCCc1ccccc1 [β-PEA, β-phenethylamine, reference compound] |  | 0.251 µM |  | Emax [1]: 100%
